MIC data for 13 compounds are collected here from DBAASP.

Test systems include Klebsiella pneumoniae; Pseudomonas aeruginosa; Salmonella typhimurium; Candida albicans; Escherichia coli UB1005.
Holding throughout (test): ≥ marks a high value that may be exact or a test limit, other limits are often not marked, values filed in µg/mL are converted to µM
Test [1] concerns Staphylococcus aureus NCTC 10788.
Test [2] deals with Escherichia coli ATCC 25726.
Test [3] concerns Staphylococcus aureus ATCC 25923.
Test [4] relates to Candida albicans ATCC 90028.
The test system of test [5] is Escherichia coli DH5alpha.
In test [6] the test system is Micrococcus luteus ATCC 9341.
Test [7] has as its system Escherichia coli ATCC 25922.
Test [8] has as its system Staphylococcus aureus ATCC 33591.
The subject of test [9] is Bacillus subtilis KCTC 3068.
The subject of test [10] is Escherichia coli KCTC 1682.
Test [11] deals with Pseudomonas aeruginosa KCTC 1637.
Test [12] has as its system Salmonella typhimurium KCTC 1926.
Test [13] concerns Staphylococcus aureus KCTC 1621.
Test [14] has as its system Staphylococcus epidermidis KCTC 1917.
For test [15], the system named is Pseudomonas aeruginosa H103.
The test system of test [16] is Salmonella enterica serovar Typhimurium.
The test system of test [17] is Staphylococcus epidermidis.

In brackets after ≈: the same amount, converted by molar mass.

Regarding `CC(C)C[C@H](NC(=O)[C@H](CC(C)C)NC(=O)CNC(=O)[C@H](C)NC(=O)[C@H](CC(C)C)NC(=O)[C@H](CC(C)C)NC(=O)CNC(=O)[C@@H]1CCCN1C(=O)[C@H](CC(C)C)NC(=O)[C@@H](N)Cc1ccccc1)C(N)=O` [FLPGLLAGLL], the MIC – broadly, the least concentration at which growth counts as inhibited – in test [1] is no less than 60 µM.

With `CC[C@H](C)[C@H](NC(=O)[C@H](CC(C)C)NC(=O)[C@H](Cc1cnc[nH]1)NC(=O)[C@@H]1CCCN1C(=O)[C@@H](NC(=O)[C@@H](NC(=O)[C@H](CCCCN)NC(=O)[C@H](C)NC(=O)[C@@H](NC(=O)CNC(=O)[C@H](CCCCN)NC(=O)[C@H](CC(C)C)NC(=O)CNC(=O)[C@H](CC(C)C)NC(=O)[C@H](CCCCN)NC(=O)[C@H](CC(C)C)NC(=O)[C@H](CC(C)C)NC(=O)[C@@H]1CCCN1C(=O)CNC(=O)[C@H](CC(C)C)NC(=O)[C@H](Cc1ccccc1)NC(=O)CN)C(C)C)C(C)C)[C@@H](C)CC)C(=O)N1CCC[C@H]1C(=O)N[C@@H](CO)C(=O)N[C@@H](CCCN=C(N)N)C(=O)N[C@@H](CCC(N)=O)C(=O)N[C@@H](CCC(N)=O)C(=O)O` [GFLGPLLKLGLKGVAKVIPHLIPSRQQ], the minimum inhibitory concentration (MIC) was no less than 40 µM in test [2] and 2.5 µM (≈ 7.2 µg/mL) in test [3].

As to `CC[C@H](C)[C@H](NC(=O)[C@@H](NC(=O)[C@@H](NC(=O)CNC(=O)[C@H](C)NC(=O)[C@@H](NC(=O)[C@H](CC(N)=O)NC(=O)[C@@H](NC(=O)[C@H](C)NC(=O)[C@H](CC(C)C)NC(=O)[C@H](CC(N)=O)NC(=O)[C@H](CCCCN)NC(=O)[C@H](Cc1ccccc1)NC(=O)[C@@H](NC(=O)[C@H](CO)NC(=O)[C@H](CC(C)C)NC(=O)[C@H](CC(C)C)NC(=O)CN)[C@@H](C)O)[C@@H](C)O)C(C)C)[C@@H](C)O)C(C)C)C(=O)N[C@@H](CC(=O)O)C(=O)N[C@H](C(=O)N[C@@H](CC(C)C)C(=O)N[C@@H](CCCCN)C(=O)N[C@H]1CSSC[C@@H](C(=O)N[C@@H](CCCN=C(N)N)C(=O)N[C@H](C(=O)O)[C@@H](C)O)NC(=O)CNC(=O)CNC(=O)[C@H]([C@@H](C)O)NC(=O)[C@H](C(C)C)NC(=O)[C@H](CCCCN)NC1=O)[C@@H](C)O` [GLLSTFKNLATNVAGTVIDTLKCKVTGGCRT], the minimum inhibitory concentration (MIC) in test [4] is no less than 80 µM; in test [2], no less than 80 µM; in [3] it was greater than 80 µM.

`CC[C@H](C)[C@H](N)C(=O)N[C@@H](CC(C)C)C(=O)N[C@@H](C)C(=O)N[C@@H](Cc1c[nH]c2ccccc12)C(=O)N[C@@H](CCCCN)C(=O)N[C@@H](Cc1c[nH]c2ccccc12)C(=O)N[C@@H](C)C(=O)N[C@@H](Cc1c[nH]c2ccccc12)C(=O)N[C@@H](Cc1c[nH]c2ccccc12)C(=O)N1CCC[C@H]1C(=O)N[C@@H](Cc1c[nH]c2ccccc12)C(=O)N[C@@H](CCCN=C(N)N)C(=O)N[C@@H](CCCN=C(N)N)C(N)=O` [ILAWKWAWWPWRR]: the MIC in test [5] is 15 µM (≈ 27.8 µg/mL); in the test with Klebsiella pneumoniae, 25 µM (≈ 46.4 µg/mL); in the test with Pseudomonas aeruginosa it was 100 µM (≈ 185 µg/mL); against Salmonella typhimurium, 25 µM (≈ 46.4 µg/mL).

Regarding `CC[C@H](C)[C@H](N)C(=O)N[C@@H](CC(C)C)C(=O)N[C@@H](C)C(=O)N[C@@H](Cc1c[nH]c2ccccc12)C(=O)N[C@@H](CCCCN)C(=O)N[C@@H](Cc1c[nH]c2ccccc12)C(=O)N1CCC[C@H]1C(=O)N[C@@H](Cc1c[nH]c2ccccc12)C(=O)N[C@@H](Cc1c[nH]c2ccccc12)C(=O)N[C@@H](C)C(=O)N[C@@H](Cc1c[nH]c2ccccc12)C(=O)N[C@@H](CCCN=C(N)N)C(=O)N[C@@H](CCCN=C(N)N)C(N)=O` [ILAWKWPWWAWRR], the MIC in [5] is 25 µM (≈ 46.4 µg/mL); against Klebsiella pneumoniae it was 50 µM (≈ 92.7 µg/mL); in the test on Pseudomonas aeruginosa, 100 µM (≈ 185 µg/mL); against Salmonella typhimurium it was 25 µM (≈ 46.4 µg/mL).

Regarding `CC[C@H](C)[C@H](N)C(=O)N[C@@H](CC(C)C)C(=O)N1CCC[C@H]1C(=O)N[C@H](C(=O)N[C@@H](CCCCN)C(=O)N[C@H](C(=O)N1CCC[C@H]1C(=O)N[C@H](C(=O)N[C@H](C(=O)N1CCC[C@H]1C(=O)N[C@H](C(=O)N[C@@H](CCCN=C(N)N)C(=O)N[C@@H](CCCN=C(N)N)C(N)=O)C(C)C)C(C)C)C(C)C)C(C)C)C(C)C` [ILPVKVPVVPVRR], in test [6], the minimum inhibitory concentration (MIC) is no less than 100 µM.

In test [6], `CC[C@H](C)[C@H](N)C(=O)N[C@@H](CC(C)C)C(=O)N1CCC[C@H]1C(=O)N[C@@H](Cc1c[nH]c2ccccc12)C(=O)N[C@@H](C)C(=O)N[C@@H](Cc1c[nH]c2ccccc12)C(=O)N1CCC[C@H]1C(=O)N[C@@H](Cc1c[nH]c2ccccc12)C(=O)N[C@@H](Cc1c[nH]c2ccccc12)C(=O)N1CCC[C@H]1C(=O)N[C@@H](Cc1c[nH]c2ccccc12)C(=O)N[C@@H](CCCN=C(N)N)C(=O)N[C@@H](CCCN=C(N)N)C(N)=O` [ILPWAWPWWPWRR] showed an MIC of 0.8 µM (≈ 1.48 µg/mL).

`CC[C@H](C)[C@H](N)C(=O)N[C@@H](CC(C)C)C(=O)N1CCC[C@H]1C(=O)N[C@@H](Cc1c[nH]c2ccccc12)C(=O)N[C@@H](CCCN=C(N)N)C(=O)N[C@@H](Cc1c[nH]c2ccccc12)C(=O)N1CCC[C@H]1C(=O)N[C@@H](Cc1c[nH]c2ccccc12)C(=O)N[C@@H](Cc1c[nH]c2ccccc12)C(=O)N1CCC[C@H]1C(=O)N[C@@H](Cc1c[nH]c2ccccc12)C(=O)N[C@@H](CCCN=C(N)N)C(=O)N[C@@H](CCCN=C(N)N)C(N)=O` [ILPWRWPWWPWRR] displayed a minimal inhibitory concentration (MIC) in test [6] of 0.4 µM (≈ 0.774 µg/mL).

As for `CC[C@H](C)[C@H](N)C(=O)N[C@H](C(=O)N[C@H](C(=O)N1CCC[C@H]1C(=O)N1CCC[C@H]1C(=O)N[C@H](C(=O)N[C@H](C(=O)N[C@@H](CCCCN)C(=O)N[C@@H](CC(=O)O)C(=O)N[C@H](C(=O)N[C@@H](CC(C)C)C(=O)N[C@@H](CCCCN)C(=O)N[C@@H](CCCCN)C(=O)N[C@@H](Cc1ccccc1)C(=O)N[C@H](C(=O)N[C@@H](CCCCN)C(=O)NCC(=O)N[C@@H](C)C(=O)N[C@H](C(=O)N[C@@H](CO)C(=O)NCC(=O)N[C@H](C(=O)N[C@@H](CCSC)C(N)=O)C(C)C)[C@@H](C)CC)[C@@H](C)CC)[C@@H](C)O)C(C)C)[C@@H](C)CC)[C@@H](C)CC)[C@@H](C)O` [ITIPPIVKDTLKKFIKGAISGVM], the minimal inhibitory concentration (MIC) is no less than 80 µM in test [2] and 20 µM (≈ 49.4 µg/mL) in [3].

In the case of `CC[C@H](C)[C@H](NC(=O)[C@@H](N)CCCCN)C(=O)N[C@@H](Cc1c[nH]c2ccccc12)C(=O)N[C@@H](Cc1ccccc1)C(=O)N[C@@H](CCC(N)=O)C(=O)N[C@@H](CC(N)=O)C(=O)N[C@@H](CCCN=C(N)N)C(=O)N[C@@H](CCCN=C(N)N)C(=O)N[C@@H](CCSC)C(=O)N[C@@H](CCCCN)C(=O)N[C@@H](Cc1c[nH]c2ccccc12)C(=O)N[C@@H](CCCCN)C(=O)N[C@@H](CCCCN)C(N)=O` [KIWFQNRRMKWKK], the results for the minimum inhibitory concentration (MIC) in test [7] and in [8] were 128 µM (≈ 237 µg/mL) and no less than 256 µM, respectively.

In test [6], `NCCCC[C@H](NC(=O)[C@H](Cc1c[nH]c2ccccc12)NC(=O)[C@@H]1CCCN1)C(=O)N[C@@H](Cc1c[nH]c2ccccc12)C(=O)N1CCC[C@H]1C(=O)N[C@@H](Cc1c[nH]c2ccccc12)C(=O)N[C@@H](Cc1c[nH]c2ccccc12)C(=O)N1CCC[C@H]1C(=O)N[C@@H](Cc1c[nH]c2ccccc12)C(=O)N[C@@H](CCCN=C(N)N)C(=O)N[C@@H](CCCN=C(N)N)C(N)=O` [PWKWPWWPWRR] returned an MIC of 0.8 µM (≈ 1.34 µg/mL).

`CC[C@H](C)[C@H](NC(=O)[C@H](CCCN=C(N)N)NC(=O)[C@H](CC(C)C)NC(=O)[C@H](CC(C)C)NC(=O)[C@@H](N)CCCN=C(N)N)C(=O)N[C@H](C(=O)N[C@H](C(=O)N[C@H](C(=O)N[C@@H](CCCN=C(N)N)C(=O)N[C@H](C(=O)N[C@@H](CC(C)C)C(=O)N[C@@H](CCCN=C(N)N)C(N)=O)C(C)C)[C@@H](C)CC)C(C)C)C(C)C` [RLLRIVVIRVLR]: the MIC was determined as 8.3 µM (≈ 12.5 µg/mL) in test [9]; 16.6 µM (≈ 25 µg/mL) in [10]; 4.15 µM (≈ 6.25 µg/mL) in test [11]; 4.15 µM (≈ 6.25 µg/mL) in test [12]; 8.3 µM (≈ 12.5 µg/mL) in [13]; 8.3 µM (≈ 12.5 µg/mL) in test [14].

As to `CC[C@H](C)[C@H](NC(=O)[C@H](CCCN=C(N)N)NC(=O)[C@H](CC(C)C)NC(=O)[C@H](CCCN=C(N)N)NC(=O)[C@@H](N)C(C)C)C(=O)N[C@@H](CCCN=C(N)N)C(=O)N[C@H](C(=O)N[C@@H](C)C(=O)N[C@H](C(=O)N[C@H](C(=O)N[C@@H](CCCN=C(N)N)C(=O)N[C@@H](CCCCN)C(N)=O)[C@@H](C)CC)C(C)C)C(C)C` [VRLRIRVAVIRK], the minimal inhibitory concentration (MIC) worked out at 2.03 µM (≈ 3 µg/mL) in the test on Candida albicans; 2.03 µM (≈ 3 µg/mL) in the test on Escherichia coli UB1005; 4.06 µM (≈ 6 µg/mL) in test [15]; 4.06 µM (≈ 6 µg/mL) in test [16]; 4.06 µM (≈ 6 µg/mL) in test [3]; 1.08 µM (≈ 1.6 µg/mL) in test [17].
